According to paper PMC7011920, “Synthesis and biological evaluation of stilbene derivatives coupled to NO donors as potential antidiabetic agents” (Journal of Enzyme Inhibition and Medicinal Chemistry, 2018):
Like-named read-outs stand apart in the source and are kept apart here.

Legend:
[1] = system: AGEs (advanced glycation end products) formation; assay: In vitro inhibitory activity of AGEs formation (bovine serum albumin/glucose, fluorescence); details: 50% inhibition of fluorescence intensity of AGE relative to 0.1% DMSO; mean ± SD (n = 3)
Protocol: Advanced glycation end products are a group of complex and heterogeneous compounds, which are implicated in a number of biochemical abnormalities associated with diabetes[21]^,[22]. Therefore, the discovery of AGEs inhibitors would be beneficial to the prevention and treatment of diabetic or other pathogenic complications.
To prepare the AGE reaction solution, 10 mg/ml of bovine serum albumin in 50 mM PBS (pH 7.4) was added to 0.2 M glucose, and 0.02% sodium azide was added to prevent bacterial growth. The reaction mixture (3 ml) was then mixed with various concentrations (0.5–1000 µg/ml) of the target compounds (1 ml) dissolved in DMSO. After incubating at 37 °C for 14 d, the fluorescence intensity of AGE was determined by a fluorospectrophotometer (PE, Cincinnati, OH) with excitation and emission wavelengths at 350 nm and 420 nm[30], respectively. All experiments were run in triplicate. Aminoguanidine hydrochloride was used as a reference compound. The inhibition rate of AGEs formation and the IC50 value of each sample were calculated according to the formula. Inhibition rate %={[(AC−AB)−(AS−ASB)]/(AC−AB)}×100% where AC is the absorbance of control group (1.0 ml glucose +1.0 ml bovine serum albumin +1.0 ml sodium azide +1.0 ml DMSO); AB is the absorbance of blank group (1.0 ml PBS +1.0 ml bovine serum albumin +1.0 ml sodium azide +1.0 ml DMSO); AS is the absorbance of sample group (1.0 ml glucose +1.0 ml bovine serum albumin +1.0 ml sodium azide +1.0 ml target compound solution or aminoguanidine hydrochloride solution); ASB is the absorbance of sample blank group (1.0 ml PBS +1.0 ml bovine serum albumin +1.0 ml sodium azide +1.0 ml target compound solution or aminoguanidine hydrochloride solution).

α-Glucosidase = molecular target: T1, α-Glucosidase (Saccharomyces cerevisiae, UniProt P53341); assay: biochemical
T1 construct: purchased Sigma Aldrich G0660-750UN
Protocol: α-Glucosidases, enzymes anchored in the brush border of the small intestine, are responsible for catalysing the hydrolysis of carbohydrates.
α-Glucosidase (G0660-750UN, Sigma Aldrich, St. Louis, MO) and 4-nitrophenyl α-D-glucopyranoside (PNPG, Macklin) were dissolved in phosphate buffer (pH 6.8, 100 mM), and the test compounds were dissolved in DMSO solution. The experiment was divided into blank group, control group, sample blank group and sample group. The reagents were loaded in 96-well plates at the dose of the table (Table 3). The solution was bathed in 37 °C water for 10 min, after the end, enzyme solution was added. After reaction at 37 °C for 20 min, 70 µL Na2CO3 solution ([…]) was added to stop the reaction. All experiments were run in triplicate. […] Since PNPG can produce glucose and p-nitrophenol (PNP) under the action of α-glucosidase, PNP has the greatest absorption at 405 nm. The absorbance was determined by the microplate reader, and the inhibition rate of α-glucosidase and the IC50 value of each sample were calculated according to the formula. Inhibition rate %={[(AC−AB)−(AS−ASB)]/(AC−AB)}×100% where AC is the absorbance of control group; AB is the absorbance of blank group; AS is the absorbance of sample group; ASB is the absorbance of sample blank group.

aldose reductase (ALR2) = molecular target: T2, aldose reductase (ALR2) (Mus musculus, UniProt P45376); assay: In vitro ALR2 inhibitory activity (crude enzyme, NADPH decrease at 340 nm); format: biochemical, mice
T2 construct: After homogenisation and centrifugation, the crude ALR2 from mice was obtained; from tissue
Protocol: The enzyme aldose reductase (ALR2) is a member of the aldo–keto reductase superfamily. The development and progression of chronic diabetic complications are confirmed to be quite related to the activation and/or over expression of ALR2[25]. Therefore, ALR2 inhibitors may play a critical role in preventing or treating these complications.
After homogenisation and centrifugation, the crude ALR2 from mice was obtained. The inhibitory activity of the compounds on ALR2 was carried out using crude enzyme and different concentrations of the compounds (1–1000 µg/ml) in 200 mM PBS (pH 6.2) containing 0.10 mM NADPH. The reaction was initiated by addition of glyceraldehyde and the decrease in the optical density of NADPH at 340 nm was recorded for 3 min. All experiments were run in triplicate. IC50 of the compounds was calculated. The flavonoid quercetin was used as a reference in the ALR2 assay.

[2] = system: STZ-induced diabetic mice; assay: Acute hypoglycaemic assay in STZ-diabetic mice; format: in vivo; details: for Blood glucose concentration: mean ± SEM, six mice
Protocol: The antidiabetic activity was determined by using a standard method. […] Especially, compound 7c caused significant decreases in blood glucose levels when compared with vehicle-treated groups (p < .05). […] In STZ-diabetic animals, the hypoglycaemic effect of pterostilbene (40 mg/kg of bw) was larger than 50% since 5 h and persisted throughout the experiment. Target compound 7c (40 mg/kg of bw) caused significant decreases in blood glucose levels compared with pterostilbene (40 mg/kg of bw).
Type II DM was induced in mice by a single intraperitoneal injection of freshly prepared STZ (Sigma Aldrich, St. Louis, MO) dissolved in 0.1 M citrate buffer, pH 4.5, in a […] of 120 mg/kg of bw. After seven days of STZ administration, blood glucose levels of each mouse were determined. Mice with blood glucose levels higher than 11 mM were considered diabetic and were included in the study.
STZ-induced diabetic mice and normal mice were placed in single cages with wire-net floors and deprived of food for 12 h before experimentation but allowed free access to tap water throughout. The compounds (at the doses of 10, 40, and 100 mg/kg of bw) were suspended in 0.05% Tween-80 in saline solution. Glibenclamide (10 mg/kg of bw) was suspended in the same vehicle. The target compounds were freshly prepared immediately before experimentation and administered by the intragastrical route at the doses of 10 ml/kg of bw. Control mice received only the vehicle (0.05% Tween-80 in saline solution) by the same route. Blood glucose levels were measured at 0, 1.5, 3, 5, 7, and 9 h after drugs administration.

[3] = read-out: IC50 value, α-Glucosidase inhibitory activity
[4] = read-out: IC50 value, ALR2 inhibitory activity
[5] = dose 40 mg/kg per os, 1.5 h vs 0 h
[6] = dose 40 mg/kg per os, 3 h vs 0 h
[7] = dose 40 mg/kg per os, 5 h vs 0 h
[8] = dose 40 mg/kg per os, 7 h vs 0 h
[9] = dose 40 mg/kg per os, 9 h vs 0 h

T1 sequence (P53341 whole entry): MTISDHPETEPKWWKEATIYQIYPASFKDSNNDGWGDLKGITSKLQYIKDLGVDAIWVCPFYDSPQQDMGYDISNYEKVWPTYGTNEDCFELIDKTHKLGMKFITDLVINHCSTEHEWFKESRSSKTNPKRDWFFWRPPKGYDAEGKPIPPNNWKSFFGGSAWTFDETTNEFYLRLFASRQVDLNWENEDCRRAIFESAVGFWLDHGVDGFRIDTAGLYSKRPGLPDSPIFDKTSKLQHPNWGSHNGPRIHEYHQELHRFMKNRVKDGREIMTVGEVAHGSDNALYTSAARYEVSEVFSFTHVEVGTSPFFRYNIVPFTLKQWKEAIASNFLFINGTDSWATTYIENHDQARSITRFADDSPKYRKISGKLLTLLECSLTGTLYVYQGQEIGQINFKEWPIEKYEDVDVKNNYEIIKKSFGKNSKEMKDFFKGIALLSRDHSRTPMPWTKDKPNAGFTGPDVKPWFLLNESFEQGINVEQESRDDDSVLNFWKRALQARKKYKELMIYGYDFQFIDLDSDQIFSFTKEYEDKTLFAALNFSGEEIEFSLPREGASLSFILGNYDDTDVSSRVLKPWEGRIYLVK

COc1cc(/C=C/c2ccc(OCCO[N+](=O)[O-])cc2)cc(OC)c1 [3a, O4′-Nitrooxyethyl pterostilbene]
IC50 [1]: 2.9 ± 0.09 µM | IC50 (α-Glucosidase; [3]): > 1000 µM | IC50 (aldose reductase (ALR2); [4]): > 1000 µM | melting point: 142.2 to 143.2 °C

O=c1c(O)c(-c2ccc(O)c(O)c2)oc2cc(O)cc(O)c12 [Quercetin, reference compound]
IC50 (aldose reductase (ALR2)): 3.71 ± 0.29 µM

COc1cc(/C=C/c2ccc(OCCCCO[N+](=O)[O-])cc2)cc(OC)c1 [3b]
IC50 [1]: 2.39 ± 0.11 µM | IC50 (α-Glucosidase; [3]): > 1000 µM | IC50 (aldose reductase (ALR2); [4]): > 1000 µM | melting point: 110.9 to 111.3 °C

Oc1ccc(/C=C/c2cc(O)cc(O)c2)cc1 [Resveratrol, reference compound]
Blood glucose concentration ([2]; dose 40 mg/kg per os, 0 h): 20.0 ± 2.6 mM | Blood glucose concentration ([2]; dose 40 mg/kg per os, 1.5 h): 16.3 ± 2.9 mM | % Variation of glycaemia [2, 5]: –18.42% | Blood glucose concentration ([2]; dose 40 mg/kg per os, 3 h): 14.0 ± 2.0 mM | % Variation of glycaemia [2, 6]: –29.83% | Blood glucose concentration ([2]; dose 40 mg/kg per os, 5 h): 12.4 ± 2.1 mM | % Variation of glycaemia [2, 7]: –38.08% | Blood glucose concentration ([2]; dose 40 mg/kg per os, 7 h): 11.2 ± 1.8 mM | % Variation of glycaemia [2, 8]: –44.25% | Blood glucose concentration ([2]; dose 40 mg/kg per os, 9 h): 10.7 ± 1.4 mM | % Variation of glycaemia [2, 9]: –46.33% | IC50 [1]: 0.83 ± 0.21 µM | IC50 (α-Glucosidase): 242 ± 17 µM | IC50 (aldose reductase (ALR2); [4]): 17 ± 0.31 µM

COc1ccc(Cl)cc1C(=O)NCCc1ccc(S(=O)(=O)NC(=O)NC2CCCCC2)cc1 [Glibenclamide, reference compound]
Blood glucose concentration ([2]; dose 10 mg/kg per os, 0 h): 20.2 ± 5.4 mM | Blood glucose concentration ([2]; dose 10 mg/kg per os, 1.5 h): 11.6 ± 4.9 mM | % Variation of glycaemia ([2]; dose 10 mg/kg per os, 1.5 h vs 0 h): –42.63% | Blood glucose concentration ([2]; dose 10 mg/kg per os, 3 h): 7.6 ± 3.9 mM | % Variation of glycaemia ([2]; dose 10 mg/kg per os, 3 h vs 0 h): –62.32% | Blood glucose concentration ([2]; dose 10 mg/kg per os, 5 h): 6.1 ± 3.6 mM | % Variation of glycaemia ([2]; dose 10 mg/kg per os, 5 h vs 0 h): –69.58% | Blood glucose concentration ([2]; dose 10 mg/kg per os, 7 h): 5.7 ± 3.6 mM | % Variation of glycaemia ([2]; dose 10 mg/kg per os, 7 h vs 0 h): –71.84% | Blood glucose concentration ([2]; dose 10 mg/kg per os, 9 h): 5.6 ± 3.6 mM | % Variation of glycaemia ([2]; dose 10 mg/kg per os, 9 h vs 0 h): –72.11%

COc1cc(/C=C/c2ccc(O)cc2)cc(OC)c1 [Pterostilbene, reference compound]
hypoglycaemic effect ([2]; 40 mg/kg of bw, STZ-diabetic animals, since 5 h and throughout the experiment): > 50% | Blood glucose concentration ([2]; dose 40 mg/kg per os, 0 h): 17.2 ± 7.0 mM | Blood glucose concentration ([2]; dose 40 mg/kg per os, 1.5 h): 12.1 ± 6.4 mM | % Variation of glycaemia [2, 5]: –29.91% | Blood glucose concentration ([2]; dose 40 mg/kg per os, 3 h): 10.2 ± 6.2 mM | % Variation of glycaemia [2, 6]: –40.89% | Blood glucose concentration ([2]; dose 40 mg/kg per os, 5 h): 8.4 ± 5.6 mM | % Variation of glycaemia [2, 7]: –51.42% | Blood glucose concentration ([2]; dose 40 mg/kg per os, 7 h): 7.7 ± 5.3 mM | % Variation of glycaemia [2, 8]: –55.36% | Blood glucose concentration ([2]; dose 40 mg/kg per os, 9 h): 6.9 ± 4.3 mM | % Variation of glycaemia [2, 9]: –59.82% | IC50 [1]: 1.99 ± 0.51 µM | IC50 (α-Glucosidase; [3]): > 1000 µM | IC50 (aldose reductase (ALR2); [4]): > 1000 µM

N=C(N)NN [AG, amino guanidine, reference compound]
IC50 [1]: 283 ± 8.52 µM
